“Also recorded” adds a separate entry of the source.
How the values were obtained:
E-cadherin fragment = assay: E-cadherin shedding, western blot of conditioned media; type: cell-based, rat; conditions: co-cultured with TGFβ, 6 day treatment
Experimental: (§1) To confirm the identity of the specific MMPs corresponding to the gelatinolytic bands in the zymograms and quantitate their levels over the 6 day time period, concentrated conditioned media from the treatment groups, control, TGFβ, TGFβ plus GM6001 (25 μM) and TGFβ plus MMPI-2/9, from three treatment times days 2, 4 and […], was subjected to western blot analysis using antibodies specific for both MMP-2 and MMP-9. Equal volumes of sample were electrophoresed on a 10% SDS-polyacrylamide gel. The resolved bands were electro-transferred onto a nitrocellulose membrane (Pall Corporation). Membranes were blocked with 5% skimmed milk powder in Tris-buffered saline (50 mM Tris base, NaCl pH 8.5) and 0.1% Tween-20 and then incubated overnight at 4° C. with a polyclonal antibody generated against MMP-9 (1:500; Chemicon International) or MMP-2 (1:500:Chemicon International) or E-adherin (1:1500; ED Transduction Laboratories).
To determine whether TGFβ treatment of the rat lens results in an induction of E-cadherin shedding and whether this can be modulated by MMPIs, previously concentrated conditioned media was obtained from the 6 day treatment groups outlined earlier, and subjected to western blot analyses using an antibody specific for extracellular domain of E-cadherin, and used in previous studies to detect the presence of soluble E-cadherin fragments. […]

[1] = system: TGFβ-induced subcapsular cataract formation; assay: Subcapsular plaque/opacity formation in cultured rat lenses (photography); type: cell-based; conditions: 6 days
Experimental: The previously established TGFβ-induced rat lens model was utilized for these studies. Briefly, lenses were obtained from adult male Wistar rats and cultured in 3.5 ml of serum free M199 medium supplemented with 50 IU/ml penicillin, 50 μg/ml streptomycin and 2.5 μg/ml fungizone (Amersham Biosciences) overnight. […] Some lenses were co-treated with TGFβ2 and the […], GM6001 (liomastat) (Chemicon International) at concentrations ranging from 10 to 25 μM or the MMP-2-9 inhibitor ((2R)-[(4-Biphenylylsulfonyl)amino]-N-hydroxyl-3-phenylpropionamide) (Chemicon) concentrations of either 10 and 25 μM. The GM6001 negative control (N-t-Butoxycarbonyl-L-leucyl-L-tryptophan Methylamide) (Calbiochem) (25 μM) was also employed. Lenses were then harvested at subsequent time-points of 2, 4 or 6 days and then photographed using a digital camera mounted to a dissecting scope. The lenses were then fixed for histology and immunofluorescence, or used for optical analysis. The conditioned media was also collected from each treatment group for zymography and western blot analysis.
The MMP inhibitor GM6001 was employed in the rat subcapsular cataract model in order to determine whether it could effectively suppress TGFβ-induced subcapsular cataract formation. To carry out these experiments, excised rat lenses were treated with exogenous TGFβ for a period of 6 days. […]

[2] = system: TGFβ-induced rat lens cataract; assay: Optical analysis (BVD error) in ex-vivo TGFβ-induced rat lens cataract model
MMP-2 = assay: Western blot of conditioned media for MMP-2; type: cell-based, rat; conditions: co-cultured with TGFβ
Experimental: as §1
Following this incubation, membranes were probed with an HRP-conjugated secondary antibody (1:7500;Amersham Biosciences) and ECL detection reagents (Amersham Biosciences). The western blots were scanned by a densitometer and analyzed by image quantification software (ImageJ, NIH, USA). […] Quantitative data were analyzed statistically using a student's t-test and expressed as ± standard deviation. […]

[3] = system: MMPs with gelatinolytic activity (MMP-2, MMP-9); assay: Gelatin zymography of lens conditioned media; type: cell-based, rat; conditions: co-treated with TGFβ, 6 day time point, relative to TGFβ treated lenses
Experimental: An equal volume of each concentrate was electrophoresed on 10% SDS-polyacrylamide gels containing either 1 mg/ml gelatin or 2% beta-casein at a final concentration of 0.1% as the substrate. Following electrophoresis the gels were developed as described previously and stained in 0.5% coomassie brilliant blue for 1 hr followed by destaining with 10% iso-propanol. Sites of gelatinase or caseinase activity were detected as clear bands against a background of uniform staining, which was digitally photographed.
To examine the timing and level of induction of MMPs In subcapsular cataract formation zymography was performed on conditioned media of lenses from three different treatment groups (control, TGFβ, TGFβ plus GM6001 (25 μM)) and TGFβ plus MMPI-2/9 at the 6 day time point.

E-cadherin mRNA = E-cadherin mRNA in lens epithelium by LCM and RT-QPCR; type: cell-based, rat; conditions: 6 day treatment; for E-cadherin mRNA level in lens epithelium versus TGFβ alone, FIG. 6B / E-cadherin mRNA level in lens epithelium versus controls, FIG. 6B: co-treated with TGFβ
Experimental: E-cadherin mRNA expression in the rat lens epithelial region was determined for lenses from different treatment groups, TGF-β, TGF-β plus GM6001 (25 μM), TGF-β plus MMPI-2/9 or control (6 day treatment time), using Real time quantitative PCR, (RT-QPCR). For these experiments, cryostat sections of lenses were subjected to Laser Capture Microdissection (LCM) in order to specifically isolate the cells. LCM was used to further ensure that cells of the subcapsular plaques were obtained and not left adherent to the underlying fiber cell mass, which may have occurred with manual dissection. Following treatment, lenses were placed in a cryostat mould containing Tissue-Tek OCT (Sakura Finetek Torrance, Calif.), and frozen on dry ice then stored at −70° C. The frozen tissue was then sectioned at 5-8 μm in a cryostat, mounted on non-coated clean glass slides, and stored again at −70° C. Immediately before Laser Capture Microdissection (LCM), the frozen sections were thawed for 10 seconds and then stained with HistoGene™LCM Frozen Section Staining kit (Arcturus, Mountain View, Calif.) using the protocol provided with strict adherence to RNAse-free conditions. The slides were then dried for 5 minutes after which LCM of the tissue was completed within two hours. LCM was then performed using the PixCell II (Arcturus), as described by others. The HistoGene stain allowed for the identification of the general morphology of the epithelium. Cells from the epithelium of the lens were then captured on CapSure Macro LCM Caps (Arcturus) using the PixCell II LCM Microscope (Arcturus) with a minimal beam diameter of 7.5 μrm. Total cellular RNA was then extracted from lifted cells using a PicoPure™ RNA Isolation kit (Arcturus Engineering Inc). Purified RNA was analyzed both qualitatively and quantitatively using an Agilent 2100 Bioanalyser (Agilent Technologies, Foster City, Calif., USA). Standard 20 μl reverse transcription reactions were preformed (SuperScript II, Life Technologies). The quality of the recovered cDNA was measured using a microfluidic gel analyzer (Agilent Technologies). E-Cadherin gene expression from recovered cDNA was analyzed using RT-PCR using a 96 well TaqMan optical reaction plate format on an ABI Prism 7700 sequence detection system (Applied Biosystems, Foster City, Calif., USA). RNA was normalized to 18S for each reaction. Each 25 μl PCR reaction (including controls) contained TaqMan Universal master mix, gene-specific forward and reverse primers (Mobix, Hamilton), and probes for target and endogenous control genes (Applied Biosystems). Serial dilutions (1-5 fold) of standard samples were set up in separate wells in duplicate, for both 18S and E-cadherin gene targets. Standard and unknown samples were added in a volume of 5 μl. Thermal cycling parameters consisted of the following: 2 minutes at 50° C., 10 minutes at 95° C. followed by 40 cycles of 15 seconds at 95° C. and 1 minute at 60° C. The number of target gene copies was calculated from a standard curve generated in parallel with each batch of samples. A linear relationship was detected over at least five orders of magnitude. In all experiments, the correlation coefficient was between 0.997 and 0.986. […] All PCR for E-cadherin cDNA quantification were performed using standard cDNA dilution curves. Quantitative data were analyzed statistically using a student's t-test and expressed as ±standard deviation. […]

[4] = system: alpha smooth muscle actin (α-SMA); assay: Immunofluorescent localization of αSMA in lens cross-sections; type: cell-based, rat; conditions: co-cultured with TGFβ 2 ng/ml, 6 days
Experimental: Lenses were collected from different treatment groups and fixed overnight in 1:99 acetic acid: ethanol solution, dehydrated, embedded in paraffin, and processed for routine histology. For histological analysis, 5 μm sections were stained with hematoxylin and eosin. Immunofluorescence was performed on 5 μm thick paraffin-embedded sections. Sections were incubated with primary antibody specific for alpha smooth muscle actin (α-SMA, 1:100, Sigma) and bound primary antibodies were visualized with a fluorescein-isothiocyanate (FITC) anti-mouse secondary antibody, (1:50, Jackson ImmunoResearch Laboratories). All sections were mounted in Vectasheild mounting medium with 4′,6-Diaminodino-2-Phenylindol (DAPI, Vector Laboratories) to visualize the nuclei.
To carry out these experiments, excised rat lenses were treated with exogenous TGFβ for a period of 6 days. An untreated control lens (A), a lens treated with TGF-β (2 ng/mL) (B), a lens co-cultured with TGFβ (2 ng/mL) and GM6001 (25 μM) (C) and a lens co-cultured with TGF-β and MMPI-2/9 (2 umol/L) (D) are shown following 6 days of culture.

MMP-9 = assay: Western blot of conditioned media for MMP-9 with densitometry; type: cell-based, rat; conditions: for MMP-9 protein in conditioned media (western blot, densitometry), FIG. 5B,C: co-treated with TGFβ 2 ng/ml, compared with TGFβ alone
Experimental: Equal volumes of sample were electrophoresed on a 10% SDS-polyacrylamide gel. The resolved bands were electro-transferred onto a nitrocellulose membrane (Pall Corporation). Membranes were blocked with 5% skimmed milk powder in Tris-buffered saline (50 mM Tris base, NaCl pH 8.5) and 0.1% Tween-20 and then incubated overnight at 4° C. with a polyclonal antibody generated against MMP-9 (1:500; Chemicon International) or MMP-2 (1:500:Chemicon International) or E-adherin (1:1500; ED Transduction Laboratories).
Following this incubation, membranes were probed with an HRP-conjugated secondary antibody (1:7500;Amersham Biosciences) and ECL detection reagents (Amersham Biosciences). The western blots were scanned by a densitometer and analyzed by image quantification software (ImageJ, NIH, USA). The relative density versus control ratio (RD/C) was estimated using Graph Pad Prism Program (GraphPad). Quantitative data were analyzed statistically using a student's t-test and expressed as ± standard deviation. A value of p<0.05 was considered significant.
The western blot data for MMP-9 from three separate experiments were analyzed by densitometry and the results are shown in FIG. 5C. Values are expressed as the Relative Density versus control ratio (RD/C)± standard deviation of 3 blots.

[5] = TGFβ 2 ng/ml plus 25 μM test substance, 6 days

Row | Molecule | E-cadherin fragment in conditioned media, FIG. 6A (E-cadherin fragment) | BVD error versus control lenses, FIG. 3 [2, 5] | MMP-2 protein in conditioned media (western blot), FIG. 5B (MMP-2) | Levels of gelatinolytic bands in conditioned media, FIG. 5A [3] | E-cadherin mRNA level in lens epithelium versus TGFβ alone, FIG. 6B (E-cadherin mRNA) | E-cadherin mRNA level in lens epithelium versus controls, FIG. 6B (E-cadherin mRNA) | MMP-9 protein in conditioned media (western blot, densitometry), FIG. 5B,C (MMP-9) | other results
1 | CNC(=O)[C@H](Cc1c[nH]c2ccccc12)NC(=O)[C@@H](CC(=O)NO)CC(C)C [GM6001] | Suppression in the levels of the E-adherin fragment | not significantly different from the control lenses | undetectable levels, similar to controls | reduced levels of all gelationolytic bands | significantly higher than those treated with TGFβ alone | significantly higher than that of controls | significant reduction (**P<0.001); also recorded: significantly attenuated | Subcapsular plaques / opacities, FIG. 4 ([1]; co-cultured with TGFβ 2 ng/mL, 25 μM): remained devoid of opacities; BVD error versus control lenses, FIG. 3 ([2]; TGFβ 2 ng/ml plus 10 μM test substance, 6 days): significantly different from control lenses; BVD error versus control lenses, FIG. 3 ([2]; TGFβ 2 ng/ml plus 15 μM test substance, 6 days): significantly different from control lenses; BVD error versus control lenses, FIG. 3 ([2]; TGFβ 2 ng/ml plus 20 μM test substance, 6 days): not significantly different from the control lenses; Dosage effect on TGFβ-induced BVD error ([2]; TGFβ 2 ng/ml plus 10, 15, 20, 25 μM, 6 days): decrease in BVD error as the GM6001 concentration increases to 25 μM; BVD error (back vertex variability), FIG. 2 ([2]; day 6, lenses co-treated with TGF-β and GM6001, compared with TGF-β treated groups): both the TGF-β treated groups of lenses exhibited a significantly larger BVD error than the control group or the GM6001 co-treated lenses; αSMA immunoreactivity in lens sections, FIG. 4 ([4]; 25 μM): no observable immunoreactivity to αSMA
2 | O=C(NO)[C@@H](Cc1ccccc1)NS(=O)(=O)c1ccc(-c2ccccc2)cc1 [MMPI-2/9, (2R)-[(4-Biphenylylsulfonyl)amino]-N-hydroxyl-3-phenylpropionamide] | undetectable |  | undetectable levels, similar to controls | reduced levels of all gelationolytic bands | significantly higher than those treated with TGFβ alone | significantly higher than that of controls | significant attenuation of MMP-9 | Subcapsular plaques / opacities, FIG. 4 ([1]; co-cultured with TGF-β): remained devoid of opacities; αSMA immunoreactivity in lens sections, FIG. 4 ([4]; inhibitor): no observable immunoreactivity to αSMA
3 | CNC(=O)[C@H](Cc1c[nH]c2ccccc12)NC(=O)[C@H](CC(C)C)NC(=O)OC(C)(C)C [negative control for GM6001, N-t-Butoxycarbonyl-L-leucyl-L-tryptophan Methylamide] |  | significantly different from the controls |  |  |  |  |  | 
4 | TGFβ: TGFβ2 (R&D Systems), growth factor used to induce subcapsular cataract in cultured rat lenses (protein, UniProt P61812 303-414, looked up) Transforming growth factor …: ALDAAYCFRNVQDNCCLRPLYIDFKRDLGWKWIHEPKGYNANFCAGACPYLWSSDTQHSRVLSLYNTINPEASASPCCVSQDLEPLTILYYIGKTPKIEQLSNMIVKSCKCS |  |  |  |  |  |  |  | BVD error versus controls ([2]; TGFβ alone, 6 days): statistically greater than in controls; Suppression of E-cadherin mRNA in plaque tissue versus normal lens epithelium (E-cadherin mRNA; TGFβ alone): ~4 fold; MMP-9 in conditioned media versus control, FIG. 5C (MMP-9; TGFβ 2 ng/ml alone): significant upregulation (*P<0.001)
